The term IC50 denotes the point on the concentration scale where inhibition reaches its midpoint.

The source made the active and inactive calls.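 How the source made its calls: active means ranking score of 15 or more out of 100, based on fitted potency or summed per-dose inhibition deviations; inactive means the rest.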

This note sets out measurements from PubChem BioAssay AID486 (Columbia University Molecular Screening Center, 2006).

The test system of this test is exon1htt(103Q)-mCFP cells, aggregate imaging, high-content. The test can be described thus: mutant huntingtin aggregate clearance potency, dose response, imaging, exon1htt(103Q)-mCFP cells, high-content imaging (AID 486).
Turning to `O=C1NC(=O)C(CC(=O)N(Cc2ccco2)C2(C(=O)NC3CCCC3)CCCCC2)N1` (stereo not drawn), the IC50 is > 8 µM (inactive).
Turning to `CN(C)[C@@H]1C(=O)C(C(N)=O)=C(O)[C@@]2(O)C(=O)C3=C(O)c4c(O)ccc(Cl)c4[C@@H](O)[C@H]3C[C@@H]12`, the IC50 was less than 0.01 µM.
For `CCn1cc(C(=O)NCCC2=CCCCC2)c(=O)c2cc(S(=O)(=O)N(C)C)ccc21` the value was > 8 µM (inactive).
As for `Nc1nonc1NC(=O)CSc1nc2ccccc2s1`, the figure is > 8 µM (inactive); as for `CCOC(=O)C1=C(C)NC(SC(C)=O)=NC1c1ccc(OC(C)=O)c(OC)c1` (stereo not drawn), > 8 µM (inactive).
As for `C#CC1(O)CC(C)N(C)C(C)C1` (stereo not drawn), the figure is > 8 µM (inactive); as for `Cc1c(C(=O)NCc2cccnc2)oc2ccc(S(=O)(=O)N3CCCCC3)cc12`, > 8 µM (inactive); as for `COc1ccc(Cc2nnc3n2N=C(c2cc4ccccc4o2)CS3)cc1OC`, > 8 µM (inactive).
`COCCCNC(=O)C(Cc1ccccc1)NS(=O)(=O)c1ccc2c(c1)c(=O)n(C)c(=O)n2C` (stereo not drawn): the IC50 was > 8 µM (inactive).
For `O=C(CSc1nnc(CNC(=O)c2c(F)cccc2Cl)o1)c1ccccc1` the value was > 8 µM (inactive).
For `CCOC(=O)C1CCN(c2nc3ccccc3nc2C(C#N)C(=O)OC(C)C)CC1` (stereo not drawn) the value was > 8 µM (inactive); for `CN(C)[C@@H]1C(=O)C(C(N)=O)=C(O)[C@@]2(O)C(=O)C3=C(O)c4c(O)ccc(Cl)c4[C@@](C)(O)C3C[C@@H]12` (stereo partly drawn), less than 0.01 µM.
`COc1ccc(CCNC(=O)CSc2nnc(CNc3ccc(Cl)cc3)o2)cc1OC`: the IC50 was > 8 µM (inactive).
As for `COc1ccc(CNc2nc3nc(C)cc(C)n3n2)cc1OC`, the figure is > 8 µM (inactive); as for `Cc1nnc(SC(=O)N2c3ccccc3Sc3ccccc32)s1`, > 8 µM (inactive); as for `COc1cccc(-c2nnc3sc(C4CCCCC4)nn23)c1`, > 4 µM (inactive).
For `CN(C)[C@@H]1C(=O)C(C(N)=O)=C(O)[C@@]2(O)C(=O)C3=C(O)c4c(O)cccc4[C@@](C)(O)[C@H]3[C@H](O)[C@@H]12` the value was less than 0.1 µM.
As for `COc1ccc(-c2nnc(SCC#N)o2)cc1`, the figure is > 8 µM (inactive); as for `CC(C)CCNC(=O)C(C)N(Cc1ccc(F)cc1)C(=O)c1ccc(CN2CCCCC2)o1` (stereo not drawn), > 8 µM (inactive).
`Cc1ccc(/C=c2\sc3nc(-c4ccccc4Br)nn3c2=O)o1`: the IC50 is > 8 µM (inactive).
As for `COC(=O)c1c(N)nc(C)n1-c1ccc(OC)cc1`, the figure is > 8 µM (inactive).
For `COC(=O)c1oc2ccc(Br)cc2c1NC(C)=O` the value was > 8 µM (inactive); for `CCOc1cc(C(=O)Nc2ncccn2)cc(OCC)c1OCC`, > 8 µM (inactive); for `COc1cccc(/C=N/n2c(C)nc3ccccc32)c1OC`, > 8 µM (inactive).
For `Cn1c(-c2ccc(F)cc2)cnc1SCC(=O)Nc1ccccc1N1CCOCC1` the value was > 8 µM (inactive); for `O=C(Nc1cnn(Cc2ccc(Cl)cc2Cl)c1)c1noc2c1CCCC2`, > 8 µM (inactive); for `Cn1c(=O)c2c(nc(NCc3ccc4c(c3)OCO4)n2Cc2ccccc2F)n(C)c1=O`, > 8 µM (inactive).
As to `Cc1cc(C)c(OCC(=O)Nc2cccc(O)c2)cc1C`, the IC50 was > 8 µM (inactive).
Consider `O=C(O)CCn1[nH]c(=O)ccc1=O`, for which the IC50 is > 8 µM (inactive).
As for `Cc1ccccc1OCC(O)CN` (stereo not drawn), the figure is > 8 µM (inactive); as for `Cn1c(=O)oc2cc(S(=O)(=O)NC3CCN(Cc4ccccc4)CC3)ccc21`, > 8 µM (inactive); as for `CCOC(=O)c1cc2c(=O)n3ccccc3nc2n(CCCOC)c1=NC(=O)C(C)(C)C`, > 8 µM (inactive).
As for `C=C(C)CSc1nnc(-c2cccc(S(=O)(=O)N(C)C)c2)n1-c1cc(OC)ccc1OC`, the figure is > 8 µM (inactive); as for `CCOC(=O)c1sc(NC(=O)c2c(C)nn(Cc3ccccc3)c2C)cc1C`, > 8 µM (inactive); as for `CCOC(=O)N1CCN(C(=O)c2ccc3c(=O)n(Cc4ccc(OC)cc4)c(=S)[nH]c3c2)CC1`, > 8 µM (inactive).
For `O=C1Nc2ccccc2OC1CC(=O)N1CCCC1` (stereo not drawn) the value was > 8 µM (inactive).
For `COc1ccccc1-n1c(=O)c2c3c(sc2n2c(SC(C)C)nnc12)CCC3`, the IC50 was > 8 µM (inactive).
Consider `Nc1cc(-c2ccccc2)ccc1O`, for which the IC50 was > 8 µM (inactive).
As for `Cc1cc(C)c(C)c(S(=O)(=O)Nc2ccc(O)cc2)c1C`, the figure is > 8 µM (inactive); as for `CCOc1cc(C(=O)N2CCN(c3ccccc3)CC2)cc(OCC)c1OCC`, > 8 µM (inactive); as for `CCn1c(C(=O)N2CCCC(C(=O)NCCCc3ccccc3)C2)cc2sccc21` (stereo not drawn), > 4 µM (inactive).
For the compound `Cc1cc(NC(=O)c2ccc(Cl)cc2)no1`, the IC50 was > 8 µM (inactive).
On to `Cn1c(=O)n(C)c2cc(NC(=O)C(F)(F)F)ccc21`, for which the IC50 is > 8 µM (inactive).
As for `O=C(NCc1ccco1)c1ccccc1Nc1ccc(F)cc1`, the IC50 was > 8 µM (inactive).
For the compound `COc1ccc(N2CCC(CNS(=O)(=O)c3cccc(C(F)(F)F)c3)C2)cc1` (stereo not drawn), the IC50 was > 8 µM (inactive).
Take `COc1ccc(CCNC(=O)C2=COCCO2)cc1`: the IC50 was > 8 µM (inactive).
For `CC(C)(C)NC(=O)CN(Cc1cccs1)C(=O)c1csnn1` the value was > 8 µM (inactive); for `O=C(Nc1ccccc1)N(O)c1ccc(Cl)cc1`, > 8 µM (inactive); for `CC1(C)CC(=O)C(C=NCCO)=C(O)C1`, > 8 µM (inactive).
For `CCOC(=O)c1sc2ncn(/N=C/N(C)C)c(=O)c2c1C` the value was > 8 µM (inactive); for `O=C(C1COc2ccccc2O1)N1CCCC1` (stereo not drawn), > 8 µM (inactive).
With `CCN(CC)c1ccc2cc(-c3nc4ccccc4[nH]3)c(=O)oc2c1`, the IC50 was > 8 µM (inactive).
For `O=C(Nc1nccs1)c1ccc(Cl)c(S(=O)(=O)N2CCCCC2)c1` the value was > 8 µM (inactive); for `Cc1ccc(Nc2nc(N)nc(CN3CCN(Cc4ccc5c(c4)OCO5)CC3)n2)cc1`, > 8 µM (inactive).
For `Cc1ccccc1-n1c(=O)cc(NCc2ccc3c(c2)OCO3)[nH]c1=O` the value was > 8 µM (inactive); for `CCCCc1nccn1CCn1ccnc1CCCC`, > 8 µM (inactive); for `CCn1ncc(C2=NOC(C(=O)NCc3ccccc3)C2)c1C` (stereo not drawn), > 8 µM (inactive).
Turning to `CN(C)C(=O)N1CCC(C(=O)NC2CCCCCCC2)CC1`, the IC50 was > 8 µM (inactive).
For the compound `COc1cccc(C2C(C(=O)c3ccc(C)o3)=C(O)C(=O)N2CCCN(C)C)c1` (stereo not drawn), the IC50 was > 8 µM (inactive).
For `O=C(NC1CCCc2ccccc21)c1ccc(CNc2c(N3CCOCC3)c(=O)c2=O)cc1` (stereo not drawn) the value was > 8 µM (inactive); for `CC1(C)Cc2ccccc2C(N)=C1C#N`, > 8 µM (inactive); for `Cc1ccnc(NC(=O)C2CCCN(S(=O)(=O)c3cnc[nH]3)C2)c1` (stereo not drawn), > 8 µM (inactive).
For `Cc1cc(N2CCN(C3CCCC3)CC2)n2c(nc3ccccc32)c1C#N` the value was > 8 µM (inactive).
As for `CCCCNC(=O)CSc1nc2ccc(N3CCOCC3)cc2c(=O)n1CCc1ccccc1`, the figure is > 8 µM (inactive); as for `OCCNC1=NCCN1`, > 8 µM (inactive).
Regarding `O=C(CCN1CCN(c2ccc(F)cc2)CC1)Nc1ccccc1F`, the IC50 is > 8 µM (inactive).
For `Cc1nc(C)n(C(C)CC(=O)O)n1` (stereo not drawn) the value was > 8 µM (inactive).
In the case of `COc1ccc(CCNC(=O)c2ccc(N3CCCC3=O)cc2)cc1OC`, the IC50 was > 8 µM (inactive).
As for `O=C(c1ccc(=O)[nH]c1)N(Cc1ccco1)C1(C(=O)NC2CCCC2)CCCCC1`, the figure is > 8 µM (inactive).
As for `CN(C)c1ccc(O)c2c1CC1CC3[C@@H](N(C)C)C(=O)C(C(N)=O)=C(O)[C@]3(O)C(=O)C1=C2O` (stereo partly drawn), the figure is less than 0.1 µM; as for `Cn1cccc1Cc1nnc(SCC(=O)NCC2CCCO2)n1-c1ccc(F)cc1` (stereo not drawn), > 8 µM (inactive); as for `CN(C)[C@@H]1C(=O)C(C(N)=O)=C(O)[C@@]2(O)C(=O)C3=C(O)c4c(O)cccc4[C@@](C)(O)[C@H]3C[C@@H]12`, 0.08 µM.
As for `COc1ccc(-c2nc(C#N)c(N3CCOCC3)o2)cc1OC`, the figure is > 8 µM (inactive).
Regarding `CS(=O)(=O)N1CCN(c2ccccc2NC(=O)c2ccc(-c3ccc(Cl)cc3Cl)o2)CC1`, the IC50 was > 8 µM (inactive).
For `CS(=O)(=O)N(CC(=O)NCCSCc1cccc(Cl)c1)c1ccc2c(c1)OCO2` the value was > 8 µM (inactive).
Regarding `COc1ccc(S(=O)(=O)Cc2ccc(C(=O)NCCc3ccc(S(N)(=O)=O)cc3)o2)cc1`, the IC50 was > 8 µM (inactive).
As for `CC(C)(C)OC(=O)N1CC=C2C(C#N)=C(N)C(C#N)(C#N)[C@H](c3cccnc3)[C@H]2C1`, the figure is > 8 µM (inactive); as for `Cc1ccc(O)c(C(=O)c2cc(C#N)c(=O)n(CC3CCCO3)c2)c1` (stereo not drawn), > 8 µM (inactive).
As for `CSc1ccccc1NC(=O)c1c(Br)cnn1C`, the figure is > 8 µM (inactive).
As for `CC(C)(NC(=O)N1CCCC1)c1cccc(C(C)(C)NC(=O)N2CCCC2)c1`, the figure is > 8 µM (inactive); as for `Cc1nc(NC2=NCN(CC3CCCO3)CN2)nc2ccccc12` (stereo not drawn), > 8 µM (inactive).
Regarding `O=c1oc2c3c4c(cc2cc1-c1nc2ccccc2[nH]1)CCCN4CCC3`, the IC50 was > 8 µM (inactive).
Regarding `COc1ccc(NC(=O)CCc2nc(-c3ccccc3F)no2)cc1`, the IC50 was > 8 µM (inactive).
For `Cc1ccccc1NC1=NCCCS1` the value was > 8 µM (inactive); for `O=C(Nc1ncnc2sc3c(c12)CCCCC3)c1ccco1`, > 8 µM (inactive).
As for `CC(OC1=CC(=O)CCC1)C(=O)c1ccccc1` (stereo not drawn), the figure is > 8 µM (inactive); as for `CCOc1ccc(NS(=O)(=O)c2ccc(OCC(=O)N3CCCC3)cc2)cc1`, > 8 µM (inactive).
For `O=C(CSc1nnc(-c2ccco2)n1-c1ccccc1)N1CCN(C(=O)c2ccco2)CC1` the value was > 8 µM (inactive).
